Reference: PubChem BioAssay AID222 (DTP/NCI, 2004)
Where “and” joins values, the source holds several entries; their conditions need not be identical. Equal values may be shown once. Toxic doses and inconclusive results are not listed. Starred links: 1 amine or outer side, 2 acyl side, 3 side chain; linkers in the order of their positions; H or OH if unused. Positions of bridges follow the written chain, without caps; N, C: chain ends. Non-standard residues stand in square brackets, D forms with d. Residues, ends and D or L forms follow the SMILES beside them. Chains are numbered I, II in the order given. Actinocin(1to9) = Cc1c2oc3c(C)ccc(C(=O)[*:2])c3nc-2c(C(=O)[*:1])c(N)c1=O; NMeV = CN[CH](C(=O)O)C(C)C; Aze = O=C(O)[CH]1CCN1; Sar = CNCC(=O)O

System: C57BL/6 mice, intracerebral ependymoblastoma, median survival T/C
Experiment: NCI In Vivo Anticancer Drug Screen. Data for tumor model Ependymoblastoma (intracerebral) in C57BL/6 mice
Settings: endpoint: median survival time, higher = longer survival
Procedure: The antitumor activity of compounds was measured in mice bearing transplantable tumors. Survival or tumor size were measured and the results are expressed as the measurement made in the treated group (T) divided by the measurement made in the vehicle treated control group (C). The tumor model used in this assay is Ependymoblastoma (intracerebral) in C57BL/6 mice

For `COc1cc([C@@H]2c3cc4c(cc3[C@@H](OC3OC5CO[C@@H](c6cccs6)OC5C(O)C3O)[C@H]3COC(=O)[C@H]23)OCO4)cc(OC)c1O` (stereo not given in full), the T/C (dose: 0.06 mg/kg/injection, schedule: Q01DX005 (ip), vehicle: saline) was 101 % of control, the T/C (dose: 0.12 mg/kg/injection, schedule: Q01DX005 (ip), vehicle: saline) was 95 % of control and the T/C (dose: 0.25 mg/kg/injection, schedule: Q01DX005 (ip), vehicle: saline) was 97 % of control. For the same molecule, the T/C (dose: 0.5 mg/kg/injection, schedule: Q01DX005 (ip), vehicle: saline) was 99 % of control, the T/C (dose: 1.0 mg/kg/injection, schedule: Q01DX005 (ip), vehicle: saline) was 104 % of control and the T/C (dose: 1.0 mg/kg/injection, schedule: Q01DX005 (oral), vehicle: saline) was 101 % of control. For the same molecule, the T/C (dose: 2.0 mg/kg/injection, schedule: Q01DX005 (ip), vehicle: saline) was 114 % of control, the T/C (dose: 4.0 mg/kg/injection, schedule: Q01DX005 (oral), vehicle: saline) was 104 % of control and the T/C (dose: 8.0 mg/kg/injection, schedule: Q01DX005 (oral), vehicle: saline) was 100 % of control. For the same molecule, the T/C (dose: 16.0 mg/kg/injection, schedule: Q01DX005 (oral), vehicle: saline) was 95 % of control.
`Nc1nc(=S)c2ncn(C3OC(CO)CC3O)c2[nH]1` (stereo not given) was tested, and the T/C (dose: 5.0 mg/kg/injection, schedule: Q01DX005 (ip), vehicle: saline) was 99 % of control and the T/C (dose: 10.0 mg/kg/injection, schedule: Q01DX005 (ip), vehicle: saline) was 99 % of control.
`CCC1CC2CC(c3cc4c(cc3OC)N(C)C3C(O)(C(=O)OC)C(OC(C)=O)C5(CC)C=CCN6CCC43C65)c3[nH]c4ccccc4c3CCN(C1)C2` (stereo not given) was tested, and the T/C (dose: 0.05 mg/kg/injection, schedule: Q01DX005 (ip), vehicle: saline) was 108 % of control, the T/C (dose: 0.1 mg/kg/injection, schedule: Q01DX005 (ip), vehicle: saline) was 112 % of control and the T/C (dose: 0.2 mg/kg/injection, schedule: Q01DX005 (ip), vehicle: saline) was 97 % of control. The T/C (dose: 0.4 mg/kg/injection, schedule: Q01DX005 (ip), vehicle: saline) was 119 % of control, the T/C (dose: 0.8 mg/kg/injection, schedule: Q01DX005 (ip), vehicle: saline) was 107 % of control and the T/C (dose: 3.2 mg/kg/injection, schedule: Q01DX005 (ip), vehicle: saline) was 96 % of control. The T/C (dose: 6.4 mg/kg/injection, schedule: Q01DX005 (ip), vehicle: saline) was 105 % of control and the T/C (dose: 12.8 mg/kg/injection, schedule: Q01DX005 (ip), vehicle: saline) was 102 % of control.
With `Cc1c2oc3c(C)ccc(C(=O)NC4C(=O)NC(C(C)C)C(=O)N5CCCC5C(=O)N(C)CC(=O)N(C)C(C(C)C)C(=O)OC4C)c3nc-2c(C(=O)NC2C(=O)NC(C(C)C)C(=O)N3CCC3C(=O)N(C)CC(=O)N(C)C(C(C)C)C(=O)OC2C)c(N)c1=O` (stereo not given) (I: TV[Aze][Sar][NMeV] / II: TVP[Sar][NMeV]; ester I:1-I:C, II:1-II:C; linker I:N-II:N via Actinocin(1to9); configuration not given here) the T/C (dose: 12.5 micrograms/kg/injection, schedule: Q01DX005 (ip), vehicle: saline) was 110 % of control, the T/C (dose: 25.0 micrograms/kg/injection, schedule: Q01DX005 (ip), vehicle: saline) was 107 % of control and the T/C (dose: 50.0 micrograms/kg/injection, schedule: Q01DX005 (ip), vehicle: saline) was 101 % of control. For the same molecule, the T/C (dose: 100.0 micrograms/kg/injection, schedule: Q01DX005 (ip), vehicle: saline) was 111 % of control.
With `O=c1cnn(C2OC(CO)C(O)C2O)c(=O)[nH]1` (stereo not given) the T/C (dose: 250.0 mg/kg/injection, schedule: Q01DX005 (ip), vehicle: saline) was 102 % of control, the T/C (dose: 500.0 mg/kg/injection, schedule: Q01DX005 (ip), vehicle: saline) was 109 % of control and 111 % of control and the T/C (dose: 1000.0 mg/kg/injection, schedule: Q01DX005 (ip), vehicle: saline) was 105 % of control and 109 % of control. The T/C (dose: 2000.0 mg/kg/injection, schedule: Q01DX005 (ip), vehicle: saline) was 115 % of control.
In the case of `C1OC1CN1CCN(CC2CO2)CC1` (stereo not given), the T/C (dose: 3.12 mg/kg/injection, schedule: Q01DX005 (ip), vehicle: saline) is reported as 101 % of control, the T/C (dose: 6.25 mg/kg/injection, schedule: Q01DX005 (ip), vehicle: saline) is reported as 97 % of control and the T/C (dose: 25.0 mg/kg/injection, schedule: Q01DX005 (ip), vehicle: saline) is reported as 98 % of control.
With `CCCCCCCCCCCCCC(=O)OC12CC(C)C3(O)C(C=C(CO)C(O)C4(O)C(=O)C(C)=CC43)C1C2(C)C` (stereo not given) the T/C (dose: 0.13 mg/kg/injection, schedule: Q01DX005 (ip), vehicle: acetone) was 100 % of control, the T/C (dose: 0.25 mg/kg/injection, schedule: Q01DX005 (ip), vehicle: acetone) was 97 % of control and the T/C (dose: 0.5 mg/kg/injection, schedule: Q01DX005 (ip), vehicle: acetone) was 86 % of control.
With `CCN(CC)c1ccc2cc3ccc(=[N+](CC)CC)cc-3oc2c1` the T/C (dose: 4.0 mg/kg/injection, schedule: Q01DX005 (ip), vehicle: saline) was 100 % of control and the T/C (dose: 8.0 mg/kg/injection, schedule: Q01DX005 (ip), vehicle: saline) was 107 % of control.
With `COc1ccc2c(c1OC(C)=O)-c1cc(O)cc3c1C(C2)N(C(=O)CN(CCCl)CCCl)CC3` (stereo not given) the T/C (dose: 12.5 mg/kg/injection, schedule: Q04DX003 (ip), vehicle: saline) was 94 % of control, the T/C (dose: 25.0 mg/kg/injection, schedule: Q04DX003 (ip), vehicle: saline) was 99 % of control and the T/C (dose: 50.0 mg/kg/injection, schedule: Q04DX003 (ip), vehicle: saline) was 86 % of control.
For `COc1cc2c3c(c1)-c1c(ccc(OC)c1OC)CC3N(CCN(CCCl)CCCl)CC2` (stereo not given), the T/C (dose: 4.0 mg/kg/injection, schedule: Q01DX005 (ip), vehicle: saline with Tween-80) was 101 % of control and 108 % of control, the T/C (dose: 8.0 mg/kg/injection, schedule: Q01DX005 (ip), vehicle: saline with Tween-80) was 104 % of control and 105 % of control and the T/C (dose: 16.0 mg/kg/injection, schedule: Q01DX005 (ip), vehicle: saline with Tween-80) was 108 % of control. The T/C (dose: 32.0 mg/kg/injection, schedule: Q01DX005 (ip), vehicle: saline with Tween-80) was 110 % of control.
In the case of `O=C1N(Cl)C(=O)C(c2ccc(Cl)cc2)(c2ccc(Cl)cc2)N1Cl`, the T/C (dose: 1.56 mg/kg/injection, schedule: Q01DX005 (ip), vehicle: Klucel (hydroxypropylcellulose) (HPC)) is reported as 105 % of control, the T/C (dose: 3.12 mg/kg/injection, schedule: Q01DX005 (ip), vehicle: Klucel (hydroxypropylcellulose) (HPC)) is reported as 110 % of control and the T/C (dose: 6.25 mg/kg/injection, schedule: Q01DX005 (ip), vehicle: Klucel (hydroxypropylcellulose) (HPC)) is reported as 99 % of control. The T/C (dose: 12.5 mg/kg/injection, schedule: Q01DX005 (ip), vehicle: Klucel (hydroxypropylcellulose) (HPC)) was 112 % of control and the T/C (dose: 25.0 mg/kg/injection, schedule: Q01DX005 (ip), vehicle: Klucel (hydroxypropylcellulose) (HPC)) was 110 % of control.
For `Nc1ccc(C(=O)O)c(O)c1`, the T/C (dose: 67.5 mg/kg/injection, schedule: Q01DX005 (ip), vehicle: saline with Tween-80) was 103 % of control, the T/C (dose: 135.0 mg/kg/injection, schedule: Q01DX005 (ip), vehicle: saline with Tween-80) was 94 % of control and the T/C (dose: 270.0 mg/kg/injection, schedule: Q01DX005 (ip), vehicle: saline with Tween-80) was 86 % of control.
For `CO[C@H]1C[C@@H]2CC[C@@H](C)[C@@](O)(O2)C(=O)C(=O)N2CCCC[C@H]2C(=O)O[C@H]([C@H](C)C[C@@H]2CC[C@@H](O)[C@H](OC)C2)CC(=O)[C@H](C)C=C(C)[C@@H](O)[C@@H](OC)C(=O)[C@H](C)C[C@H](C)/C=C/C=C/C=C1C`, the T/C (dose: 3.12 mg/kg/injection, schedule: Q01DX009 (ip), vehicle: saline with Tween-80) was 111 % of control, the T/C (dose: 6.25 mg/kg/injection, schedule: Q01DX009 (ip), vehicle: saline with Tween-80) was 120 % of control and the T/C (dose: 100.0 mg/kg/injection, schedule: Q01DX009 (ip), vehicle: saline with Tween-80) was 157 % of control. The T/C (dose: 200.0 mg/kg/injection, schedule: Q01DX009 (ip), vehicle: saline with Tween-80) was 92 % of control.
